Reference: US20140088052A1, “CHALCONE DERIVATIVES AS NRF2 ACTIVATORS” (THE JOHNS HOPKINS UNIVERSITY, priority 2011, published 2014)
Like-named read-outs stand apart in the source and are kept apart here.

Test system: Nrf2
Test: Expression of Nrf2-regulated genes GCLM and NQO1 by qRT-PCR in Beas-2B cells (screen)
Format: cell-based, human
Conditions: 16 h, DMSO = 1.0 (Table 2); for fold induction at 10 µM: Homo sapiens
Method: To investigate the potency of the presently disclosed chalcone derivatives to activate Nrf2, the expression of antioxidant genes, GCLM and NADPH-NQO1, two well characterized transcriptional targets of Nrf2, were measured as surrogate markers. By “marker” is meant any protein or polynucleotide having an alteration in expression level or activity that is associated with a disease, disorder, or condition. It has been previously shown that oxidants or small molecule activators of Nrf2 increase GCLM and NQO1 in cells or tissues of wild-type, but not in Nrf2-deficient mice. Osburn, W. O., et al., Genetic or pharmacologic amplification of Nrf2 signaling inhibits acute inflammatory liver injury in mice. Toxicol. Sci. 2008, 104(1), 218-227. […]
RNA was isolated and gene expression was measured after 16 h.
Total RNA was extracted from cells/tissue using Qiagen RNeasy kit (Qiagen Corporation, Valencia, Calif.) and reverse transcription was performed by using random hexamers and MultiScribe reverse transcriptase according to the manufacturer's recommendations (Applied Biosystems, Foster City, Calif., USA). Quantitative real-time RT-PCR analyses of Nrf2, NQO1, HO1, and GCLM were performed by using Assay-on-Demand primers and probe sets from Applied Biosystems. Assays were performed using the ABI 7000 Taqman system (Applied Biosystems, Foster City, Calif.). β-actin was used for normalization.

[1] = BEAS-2B, read-out: Relative Fold Change GCLM
[2] = BEAS-2B, read-out: Relative Fold Change NQO1
[3] = read-out: Relative Fold Change GCLM
[4] = read-out: Relative Fold Change NQO1

Compound | fold induction at 10 µM [1] | fold induction at 10 µM [2] | further results
COc1ccccc1C(=O)/C=C/c1ccccc1 [Compound 1b, (E)-1-(2-methoxyphenyl)-3-phenylprop-2-en-1-one] | 3.6 | 3.2 | –
COc1cccc(C(=O)/C=C/c2ccccc2)c1 [Compound 1c, (E)-1-(3-methoxyphenyl)-3-phenylprop-2-en-1-one] | 1.5 | 2.4 | –
COc1ccc(C(=O)/C=C/c2ccccc2)cc1 [Compound 1d, (E)-1-(4-methoxyphenyl)-3-phenylprop-2-en-1-one] | 1.9 | 2.8 | –
COc1ccc(C(=O)/C=C/c2ccccc2)c(OC)c1 [Compound 1e, (E)-3-phenyl-1-(2,4-dimethoxyphenyl)prop-2-en-1-one] | – | – | fold induction at 10 µM [3]: 2.7; fold induction at 10 µM [4]: 2.8
COc1cccc(OC)c1C(=O)/C=C/c1ccccc1 [Compound 1f, (E)-3-phenyl-1-(2,6-dimethoxyphenyl)prop-2-en-1-one] | 2.5 | 1.9 | –
COc1ccc(OC)c(C(=O)/C=C/c2ccccc2)c1 [Compound 1g, (E)-3-phenyl-1-(2,5-dimethoxyphenyl)prop-2-en-1-one] | 3 | 2.6 | –
COc1ccc(C(=O)/C=C/c2ccccc2)cc1OC [Compound 1h, (E)-3-phenyl-1-(3,4-dimethoxyphenyl)prop-2-en-1-one] | – | – | fold induction at 10 µM [3]: 2.3; fold induction at 10 µM [4]: 2.5
COc1cc(OC)cc(C(=O)/C=C/c2ccccc2)c1 [Compound 1i, (E)-3-phenyl-1-(3,5-dimethoxyphenyl)prop-2-en-1-one] | 3 | 2.4 | –
COc1cc(C(=O)/C=C/c2ccccc2)cc(OC)c1OC [Compound 1j, (E)-3-phenyl-1-(3,4,5-trimethoxyphenyl)prop-2-en-1-one] | 0.7 | 0.7 | –
COc1ccc(C(=O)/C=C/c2ccccc2)c(OC)c1OC [Compound 1k, (E)-3-phenyl-1-(2,3,4.trimethoxyphenyl)prop-2-en-1-one] | – | – | Relative Fold Change GCLM (10 μM): 2.4; Relative Fold Change NQO1 (10 μM): 2.4
COc1cc(OC)c(C(=O)/C=C/c2ccccc2)c(OC)c1 [Compound 1l, (E)-3-phenyl-1-(2,4,6-trimethoxyphenyl)prop-2-en-1-one] | 3.1 | 1.8 | –
COc1ccc(OC)c(C(=O)/C=C/c2ccccc2C(F)(F)F)c1 [Compound 2g, (E)-1-(2,5-dimethoxyphenyl)-3-(2-(trifluoromethyl)phenyl)prop-2-en-1-one] | 4.4 | 2.7 | –
COc1ccc(C(=O)/C=C/c2ccccc2C(F)(F)F)cc1OC [Compound 2h, (E)-1-(3,4-dimethoxyphenyl)-3-(2-(trifluoromethyl)phenyl)prop-2-en-1-one] | 4.3 | 2.7 | –
COc1cc(C(=O)/C=C/c2ccccc2C(F)(F)F)cc(OC)c1OC [Compound 2j, (E)-1-(3,4,5,S.trimethoxyphenyl)-3-(2-(trifluoromethyl)phenyl)prop-2-en-1-one] | 3 | 3.1 | –
O=C(/C=C/c1cccc(C(F)(F)F)c1)c1ccccc1 [Compound 3a, (E)-1-phenyl-3-(3-(trifluoromethyl)phenyl)prop-2-en-1-one] | 3.1 | 2.8 | –
COc1ccccc1C(=O)/C=C/c1cccc(C(F)(F)F)c1 [Compound 3b, (E)-1-(2-methoxyphenyl)-3-(3-(trifluoromethyl)phenyl)prop-2-en-1-one] | 3.9 | 2.9 | –
COc1ccc(C(=O)/C=C/c2cccc(C(F)(F)F)c2)cc1 [Compound 3d, (E)-1-(4-methoxyphenyl)-3-(3-(trifluoromethyl)phenyl)prop-2-en-1-one] | 2.7 | 2.8 | –
